{"source": "patent US9808456B2", "about": "“Piperazine thiazole derivatives useful in the treatment of tauopathies such as Alzheimer's disease” (REMYND NV, priority 2011, dated 2017)"}
{"system": "M17_3TAU(P301L) cells", "experiment": "Neuroblastoma tauopathy model: inhibition of TAU-induced cytotoxicity (LDH) after retinoic acid differentiation", "assay_type": "cell-based", "conditions": "Homo sapiens, 168 h, inhibition of TAU-induced toxicity, 7 days retinoic acid, LDH readout", "text": "A TAU expression plasmid was constructed by sub-cloning the cDNA encoding for human TAU-P301L protein, wherein proline at position 301 is substituted by a leucine residue, into mammalian expression vector pcDNA3.1 resulting in the plasmid pcDNA3.1-TAUP301L. Plasmids pcDNA3.1 and pcDNA3.1-TAU P301L were transfected into human neuroblastoma cells (BE-M17; ATCC No. CRL2267™) using lipofectamine reagent and subsequently, independent clonal cell lines with the plasmids stably integrated into the genome were selected by antibiotic resistance selection (Geneticin (G418)), resulting in cell lines M17.pcDNA3 and M17_3TAUP301L. Expression of the TAUP301L gene in the M17_3TAUP301L cells was confirmed by Western blot analysis.\nDifferentiation of the cells with RA leads to phosphorylation and subsequent aggregation of TAU, inducing a tauopathy in these cells. Cytotoxicity of cells was measured by quantification of lactate dehydrogenase (LDH) levels. In dead cells LDH is leaked out of the cells into the medium due to a loss of plasma-membrane integrity.\nBriefly, 3 days preceeding the experiment pre-cultures of M17.pcDNA3 and M17_3TAU(P301L) cells were prepared, starting from a stock culture, at a density of 50.000-100.000 cells/cm2 in detection medium (Optimem Reduced Serum without phenol red (Gibco, Cat. 31985-047) supplemented with 1% fetal calf serum (FCS), 1 mM sodium pyruvate, 1× non-essential amino acids (NEAR), 500 μg/ml G418 and 0.5× antibiotic/antimycotic (ABAM)). At the day of the experiment these precultures were diluted to ˜0, 1.106 cells/ml in detection medium without FCS and 60 μL of this suspension is dispensed per well into a 96-well microtiter plate. After 3 hours of incubation at 37° C./5% CO2 an equal volume of detection medium containing 2.5 μM RA was added and subsequently incubated for 7 days at 37° C./5% CO2. After 7 days, LDH activity was determined using the Promega Cytotox 96 Non-Radioactive cytotoxicity assay (Cat. G1780), according the manufacturer's instructions. Cytotoxicity is measured as the ratio of LDH increase in the supernatant divided by the LDH increase in the total cell suspension (sum of the LDH measured in cells and supernatant).\nThe M17_3TAU(P301L) cell line makes it possible to assess the ability of novel compounds to inhibit TAU-induced cytotoxicity. […] Compounds were tested for their ability to hamper TAU-induced toxicity at different concentrations, ranging from low non-effective concentrations to high potent concentrations. Afterwards, the dose-dependent inhibition curve was used to calculate their EC50 (Table III).", "units": {"EC50": "nM"}}
{"smiles": "Clc1ccc(CCN2CCN(c3nc(NC4CCOCC4)ns3)CC2)cc1", "note": "[Example 8, (5-{4-[2-(4-Chloro-phenyl)-ethyl]-piperazin-1-yl}-[1,2,4]thiadiazol-3-yl)-(tetrahydro-pyran-4-yl)-amine]", "EC50": 52.2}
{"smiles": "COc1cc(CCN2CCN(c3nc(C4CCOCC4)ns3)CC2)ccn1", "note": "[Example 29, 1-[2-(2-Methoxy-pyridin-4-yl)-ethyl]-4-[3-(tetrahydro-pyran-4-yl)-[1,2,4]thiadiazol-5-yl]-piperazine]", "EC50": 203}
{"smiles": "Cc1ccccc1CN1CCN(c2nc(C3CCOCC3)ns2)CC1", "note": "[Example 30, 1-(2-Methyl-benzyl)-4-[3-(tetrahydro-pyran-4-yl)-[1,2,4]thiadiazol-5-yl]-piperazine]", "EC50": 414}
{"smiles": "Fc1ccc(CCN2CCN(c3nc(N4CCC(F)(F)C4)ns3)CC2)cc1F", "note": "[Example 11, 1-[2-(3,4-Difluoro-phenyl)-ethyl]-4-[3-(3,3-difluoro-pyrrolidin-1-yl)-[1,2,4]thiadiazol-5-yl]-piperazine]", "EC50": 11.4}
{"smiles": "FC(F)(F)C1CCN(c2nsc(N3CCN(CCc4ccc(Cl)cc4)CC3)n2)CC1", "note": "[Example 5, 1-[2-(4-Chloro-phenyl)-ethyl]-4-[3-(4-trifluoromethyl-piperidin-1-yl)-[1,2,4]thiadiazol-5-yl]-piperazine]", "EC50": 47}
{"smiles": "Fc1ccc(CCN2CCN(c3nc(N4CCC(F)(F)CC4)ns3)CC2)cc1F", "note": "[Example 10, 1-[2-(3,4-Difluoro-phenyl)-ethyl]-4-[3-(4,4-difluoro-piperidin-1-yl)-[1,2,4]thiadiazol-5-yl]-piperazine]", "EC50": 12.1}
{"smiles": "Fc1ccc(CCN2CCN(c3nc(C4CCOCC4)ns3)CC2)cc1F", "note": "[Example 31, 1-[2-(3,4-Difluoro-phenyl)-ethyl]-4-[3-(tetrahydro-pyran-4-yl)-[1,2,4]thiadiazol-5-yl]-piperazine]", "EC50": 308}
{"smiles": "Clc1ccc(CCN2CCN(c3nc(NCC4CC4)ns3)CC2)cc1", "note": "[Example 7, (5-{4-[2-(4-Chloro-phenyl)-ethyl]-piperazin-1-yl}-[1,2,4]thiadiazol-3-yl)-cyclopropylmethyl-amine]", "EC50": 17.2}
{"smiles": "COc1cccc(CCN2CCN(c3nc(C4CC4)ns3)CC2)c1", "note": "[Example 26, 1-(3-Cyclopropyl-[1,2,4]thiadiazol-5-yl)-4-[2-(3-methoxy-phenyl)-ethyl]-piperazine]", "EC50": 410}
{"smiles": "Fc1ccc(CCN2CCN(c3nc(N4CCCC4)ns3)CC2)cc1F", "note": "[Example 14, 1-[2-(3,4-Difluoro-phenyl)-ethyl]-4-(3-pyrrolidin-1-yl-[1,2,4]thiadiazol-5-yl)-piperazine]", "EC50": 176}
{"smiles": "COc1cccc(CCN2CCN(c3nc(C4CCCCC4)ns3)CC2)c1", "note": "[Example 22, 1-(3-Cyclohexyl-[1,2,4]thiadiazol-5-yl)-4-[2-(3-methoxy-phenyl)-ethyl]-piperazine]", "EC50": 3}
{"smiles": "Fc1ccc(CCN2CCN(c3nc(NC4CCOCC4)ns3)CC2)cc1F", "note": "[Example 16, (5-{4-[2-(3,4-Difluoro-phenyl)-ethyl]-piperazin-1-yl}-[1,2,4]thiadiazol-3-yl)-(tetrahydro-pyran-4-yl)-amine]", "EC50": 34.5}
{"smiles": "COc1ccc(CCN2CCN(c3nc(C4CCOCC4)ns3)CC2)cc1", "note": "[Example 28, 1-[2-(4-Methoxy-phenyl)-ethyl]-4-[3-(tetrahydro-pyran-4-yl)[1,2,4]thiadiazol-5-yl]-piperazine]", "EC50": 33.3}
{"smiles": "Fc1ccc(CCN2CCN(c3nc(NC4CCC(C(F)(F)F)CC4)ns3)CC2)cc1F", "note": "(stereo not drawn) [Example 19, (5-{4-[2-(3,4-Difluoro-phenyl)-ethyl]-piperazin-1-yl}[1,2,4]thiadiazol-3-yl)-(4-trifluoromethyl-cyclohexyl)-amine]", "EC50": 340}
{"smiles": "CCCCN(CC)c1nsc(N2CCN(CCc3ccc(F)c(F)c3)CC2)n1", "note": "[Example 20, Butyl-(5-{4-[2-(3,4-difluoro-phenyl)-ethyl]-piperazin-1-yl}-[1,2,4]thiadiazol-3-yl)-ethyl-amine]", "EC50": 709}
{"smiles": "CCCCc1nsc(N2CCN(CCc3cccc(OC)c3)CC2)n1", "note": "[Example 25, 1-(3-Butyl-[1,2,4]thiadiazol-5-yl)-4-[2-(3-methoxy-phenyl)-ethyl]-piperazine]", "EC50": 2.2}
{"smiles": "Fc1ccc(CCN2CCN(c3nc(N4CCCCC4)ns3)CC2)cc1F", "note": "[Example 18, 1-[2-(3,4-Difluoro-phenyl)-ethyl]-4-(3-piperidin-1-yl-[1,2,4]thiadiazol-5-yl)-piperazine]", "EC50": 46.4}
{"smiles": "Fc1ccc(CCN2CCN(c3nc(N4CCC(C(F)(F)F)CC4)ns3)CC2)cc1F", "note": "[Example 13, 1-[2-(3,4-Difluoro-phenyl)-ethyl]-4-[3-(4-trifluoromethyl-piperidin-1-yl)-[1,2,4]thiadiazol-5-yl]-piperazine]", "EC50": 15.3}
{"smiles": "Clc1ccc(CCN2CCN(c3nc(NC4CCCCC4)ns3)CC2)cc1", "note": "[Example 9, (5-{4-[2-(4-Chloro-phenyl)-ethyl]-piperazin-1-yl}-[1,2,4]thiadiazol-3-yl)-cyclohexyl-amine]", "EC50": 9.4}
{"smiles": "Fc1ccc(CCN2CCN(c3nc(NCC4CC4)ns3)CC2)cc1F", "note": "[Example 15, Cyclopropylmethyl-(5-{4-[2-(3,4-difluoro-phenyl)-ethyl]-piperazin-1-yl}-[1,2,4]thiadiazol-3-yl)-amine]", "EC50": 38.4}
{"smiles": "Fc1ccc(CCN2CCN(c3nc(C4CCOCC4)ns3)CC2)cc1", "note": "[Example 27, 1-[2-(4-Fluoro-phenyl)-ethyl]-4-[3-(tetrahydro-pyran-4-yl)-[1,2,4]thiadiazol-5-yl]-piperazine]", "EC50": 309}
{"smiles": "Clc1ccc(CCN2CCN(c3nc(N4CCCCC4)ns3)CC2)cc1", "note": "[Example 6, 1-[2-(4-Chloro-phenyl)-ethyl]-4-(3-piperidin-1-yl-[1,2,4]thiadiazol-5-yl)-piperazine]", "EC50": 64.1}
{"smiles": "CCCCc1nsc(N2CCN(CCc3ccc(OC)cc3)CC2)n1", "note": "[Example 23, 1-(3-Butyl-[1,2,4]thiadiazol-5-yl)-4-[2-(4-methoxy-phenyl)-ethyl]-piperazine]", "EC50": 0.5}
{"smiles": "Fc1ccc(CCN2CCN(c3nc(NC4CCCCC4)ns3)CC2)cc1F", "note": "[Example 17, Cyclohexyl-(5-{4-[2-(3,4-difluoro-phenyl)-ethyl]-piperazin-1-yl}-[1,2,4]thiadiazol-3-yl)-amine]", "EC50": 3.8}
{"smiles": "COc1ccc(CCN2CCN(c3nc(N4CCC(F)(F)CC4)ns3)CC2)cc1", "note": "[Example 1, 1-[3-(4,4-Difluoro-piperidin-1-yl)-[1,2,4]thiadiazol-5-yl]-4-[2-(4-methoxy-phenyl)-ethyl]-piperazine]", "EC50": 0.6}
{"smiles": "COc1ccc(CCN2CCN(c3nc(C4CCCCC4)ns3)CC2)cc1", "note": "[Example 21, 1-(3-Cyclohexyl-[1,2,4]thiadiazol-5-yl)-4-[2-(4-methoxy-phenyl)-ethyl]-piperazine]", "EC50": 2.2}
{"smiles": "FC1CCN(c2nsc(N3CCN(CCc4ccc(Cl)cc4)CC3)n2)CC1", "note": "[Example 4, 1-[2-(4-Chloro-phenyl)-ethyl]-4-[3-(4-fluoro-piperidin-1-yl)-[1,2,4]thiadiazol-5-yl]-piperazine]", "EC50": 84.6}
{"smiles": "FC1(F)CCN(c2nsc(N3CCN(CCc4ccc(Cl)cc4)CC3)n2)C1", "note": "[Example 3, 1-[2-(4-Chloro-phenyl)-ethyl]-4-[3-(3,3-difluoro-pyrrolidin-1-yl)-[1,2,4]thiadiazol-5-yl]-piperazine]", "EC50": 8.8}
{"smiles": "COc1ccc(CCN2CCN(c3nc(C4CC4)ns3)CC2)cc1", "note": "[Example 24, 1-(3-Cyclopropyl-[1,2,4]thiadiazol-5-yl)-4-[2-(4-methoxy-phenyl)-ethyl]-piperazine]", "EC50": 44.5}
{"smiles": "Fc1ccc(CCN2CCN(c3nc(N4CCC(F)CC4)ns3)CC2)cc1F", "note": "[Example 12, 1-[2-(3,4-Difluoro-phenyl)-ethyl]-4-[3-(4-fluoro-piperidin-1-yl)-[1,2,4]thiadiazol-5-yl]-piperazine]", "EC50": 33.3}
